From patent US20140011799A1 (Bristol-Myers Squibb Company, priority 2012, published 2014)

Columns and labels:
Endothelial lipase (EL) = biological target: T1, Endothelial lipase (EL) (Homo sapiens, UniProt Q9Y5X9); test: Endothelial lipase (EL) enzymatic assay, fluorescent substrate A10070 in DMPG vesicles; assay type: biochemical; conditions: EL from conditioned media of HT-1080 cells; compound preincubated 30 min at 37° C; read-out: EL IC50
T1 construct: HT-1080 cells that were transformed using RAGE technology (Athersys) to overexpress endogenous EL; endogenous in cells; conditioned medium used
T1 sequence (Q9Y5X9 21-500): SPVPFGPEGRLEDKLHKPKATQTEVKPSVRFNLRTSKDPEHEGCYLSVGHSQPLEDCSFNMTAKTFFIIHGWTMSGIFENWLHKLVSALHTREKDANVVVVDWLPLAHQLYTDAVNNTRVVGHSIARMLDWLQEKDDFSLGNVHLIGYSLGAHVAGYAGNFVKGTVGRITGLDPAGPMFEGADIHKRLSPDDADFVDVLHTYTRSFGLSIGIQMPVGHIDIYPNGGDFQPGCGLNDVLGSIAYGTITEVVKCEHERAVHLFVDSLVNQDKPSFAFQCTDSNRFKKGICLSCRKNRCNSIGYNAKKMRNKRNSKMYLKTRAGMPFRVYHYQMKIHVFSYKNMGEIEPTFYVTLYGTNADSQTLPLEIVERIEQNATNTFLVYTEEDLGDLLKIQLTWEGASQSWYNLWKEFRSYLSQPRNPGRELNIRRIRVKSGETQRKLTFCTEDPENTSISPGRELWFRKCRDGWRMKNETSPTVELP
Procedure, shortened: (§1)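 EL from conditioned medium of HT-1080 cells engineered to overexpress endogenous EL; HL partially purified from conditioned medium of HL-overexpressing COS cells. Enzyme preincubated with compound 30 min at 37° C in 50 mM HEPES pH 8.0, 50 mM NaCl, 1 mM CaCl2; DMPG vesicles carrying FRET substrate (0.11 mole fraction) then added.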

hepatic lipase (HL) = biological target: T2, hepatic lipase (HL) (Homo sapiens, UniProt P11150); test: Hepatic lipase (HL) enzymatic assay, fluorescent substrate A10070 in DMPG vesicles; assay type: biochemical; conditions: HL partially purified from conditioned media of COS cells; compound preincubated 30 min at 37° C; read-out: HL IC50
T2 construct: made in house; host or cells: COS cells (conditioned medium, partially purified)
T2 sequence (P11150 23-499): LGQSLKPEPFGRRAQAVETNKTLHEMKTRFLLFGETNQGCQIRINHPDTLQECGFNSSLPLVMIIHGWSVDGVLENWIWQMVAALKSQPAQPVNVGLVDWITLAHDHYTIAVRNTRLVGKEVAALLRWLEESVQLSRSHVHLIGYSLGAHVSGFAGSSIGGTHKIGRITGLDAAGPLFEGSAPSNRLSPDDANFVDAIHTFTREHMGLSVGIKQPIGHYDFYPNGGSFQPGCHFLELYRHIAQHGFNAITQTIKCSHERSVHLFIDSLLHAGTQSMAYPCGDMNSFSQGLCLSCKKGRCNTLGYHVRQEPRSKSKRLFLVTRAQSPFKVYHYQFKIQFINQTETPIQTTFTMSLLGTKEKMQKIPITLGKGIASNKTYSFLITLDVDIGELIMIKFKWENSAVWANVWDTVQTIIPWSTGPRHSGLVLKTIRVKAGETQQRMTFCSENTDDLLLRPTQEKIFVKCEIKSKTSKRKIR
Procedure, shortened: as §1

SMILES | IC50 (Endothelial lipase (EL)) [nM] | IC50 (hepatic lipase (HL)) [nM]
COC(=O)CCS(=O)(=O)C(c1nnc(CC2SC(=O)NC2=O)o1)c1nc2cc(F)c(-c3ccccc3)cc2s1 (stereo not shown) [Example 161, methyl 3-(((5-((2,4-dioxo-1,3-thiazolidin-5-yl)methyl)-1,3,4-oxadiazol-2-yl)(5-fluoro-6-phenyl-1,3-benzothiazol-2-yl)methyl)sulfonyl)propanoate] | < 10 | < 10
CS(=O)(=O)C(c1nnc(CNS(N)(=O)=O)o1)c1nc2ccc(-c3cccc(C(=O)NCCO)c3)cc2s1 (stereo not shown) [Example 257, N-(2-hydroxyethyl)-3-{2-[methanesulfonyl({5-[(sulfamoylamino)methyl]-1,3,4-oxadiazol-2-yl})methyl]-1,3-benzothiazol-6-yl}benzamide] | 10 | 29
COC(=O)NCCS(=O)(=O)C(c1nnc(CNS(N)(=O)=O)o1)c1nc2ccc(-c3ccccc3)cc2s1 (stereo not shown) [Example 122, methyl (2-(((6-phenyl-1,3-benzothiazol-2-yl)(5-((sulfamoylamino)methyl)-1,3,4-oxadiazol-2-yl)methyl)sulfonyl)ethyl)carbamate] | < 10 | < 10
CC(C)Cn1cc(-c2ccc3nc(C(c4nnc(CNS(N)(=O)=O)o4)S(=O)(=O)Cc4ccccc4)sc3c2)cn1 (stereo not shown) [Example 136, N-((5-((benzylsulfonyl)(6-(1-isobutyl-1H-pyrazol-4-yl)-1,3-benzothiazol-2-yl)methyl)-1,3,4-oxadiazol-2-yl)methyl)sulfamide] | < 10 | < 10
CN1CCN(C(=O)c2cccc(-c3ccc4nc(C(c5nnc(CNS(N)(=O)=O)o5)S(C)(=O)=O)sc4c3)c2)CC1 (stereo not shown) [Example 193, N-((5-((6-(3-((4-methyl-1-piperazinyl)carbonyl)phenyl)-1,3-benzothiazol-2-yl)(methylsulfonyl)methyl)-1,3,4-oxadiazol-2-yl)methyl)sulfamide] | < 10 | 105
COc1cc2nc(C(c3nnc(CNS(=O)(=O)NC(=O)OC(C)(C)C)o3)S(C)(=O)=O)sc2cc1-c1cnn(C)c1 (stereo not shown) [Example 159, 2-methyl-2-propanyl {[(5-{[5-methoxy-6-(1-methyl-1H-pyrazol-4-yl)-1,3-benzothiazol-2-yl](methylsulfonyl)methyl}-1,3,4-oxadiazol-2-yl)methyl]sulfamoyl}carbamate] | 13 | 14
CC1(Cc2nnc(C(c3nc4ccc(-c5cccc(C(=O)NC6CC(F)(F)C6)c5)cc4s3)S(C)(=O)=O)o2)NC(=O)NC1=O (stereo not shown) [Example 223, N-(3,3-difluorocyclobutyl)-3-{2-[methanesulfonyl({5-[(4-methyl-2,5-dioxo-imidazolidin-4-yl)methyl]-1,3,4-oxadiazol-2-yl})methyl]-1,3-benzothiazol-6-yl} benzamide] | 32 | 55
CC1(O)CN(C(=O)c2cccc(-c3ccc4nc(C(c5nnc(CC6(C)NC(=O)NC6=O)o5)S(C)(=O)=O)sc4c3)c2)C1 (stereo not shown) [Example 204, 5-{[5-({6-[3-(3-hydroxy-3-methylazetidine-1-carbonyl)phenyl]-1,3-benzothiazol-2-yl} (methanesulfonyl)methyl)-1,3,4-oxadiazol-2-yl]methyl}-5-methyl-imidazolidine-2,4-dione] | 17 | 783
NS(=O)(=O)NCc1nnc(C(c2nc3ccc(-c4ccc(F)cc4)cc3s2)S(=O)(=O)Cc2ccccc2)o1 (stereo not shown) [Example 127, N-((5-((benzylsulfonyl)(6-(4-fluorophenyl)-1,3-benzothiazol-2-yl)methyl)-1,3,4-oxadiazol-2-yl)methyl) sulfamide] | < 10 | < 10
CC(O)CCNC(=O)Cc1nnc(C(c2nc3ccc(-c4ccc(C(=O)N5CCOCC5)cc4)cc3s2)S(C)(=O)=O)o1 (stereo not shown) [Example 176, N-(3-hydroxybutyl)-2-(5-((methylsulfonyl)(6-(4-(4-morpholinylcarbonyl)phenyl)-1,3-benzothiazol-2-yl)methyl)-1,3,4-oxadiazol-2-yl)acetamide] | 10 | 465
COCCNC(=O)c1cccc(-c2ccc3nc(C(c4nnc(CNS(N)(=O)=O)o4)S(=O)(=O)CCC(F)(F)F)sc3c2)c1 (stereo not shown) [Example 199, N-(2-methoxyethyl)-3-(2-((5-((sulfamoylamino)methyl)-1,3,4-oxadiazol-2-yl)((3,3,3-trifluoropropyl)sulfonyl)methyl)-1,3-benzothiazol-6-yl)benzamide] | < 10 | 1020
CCCOCCCNC(=O)Cc1nnc(C(c2nc3ccc(-c4ccc(C(=O)N5CCOCC5)cc4)cc3s2)S(C)(=O)=O)o1 (stereo not shown) [Example 175, 2-(5-((Methylsulfonyl)(6-(4-(4-morpholinylcarbonyl)phenyl)-1,3-benzothiazol-2-yl)methyl)-1,3,4-oxadiazol-2-yl)-N-(3-propoxypropyl)acetamide] | 12 | 89
NS(=O)(=O)NCc1nnc(C(c2nc3ccc(-c4ccccc4)cc3s2)S(=O)(=O)CC(O)CO)o1 (mixture of isomers) [Example 171, N-((5-(((2,3-Dihydroxypropyl)sulfonyl)(6-phenyl-1,3-benzothiazol-2-yl)methyl)-1,3,4-oxadiazol-2-yl)methyl)sulfamide] | < 10 | < 10

Continued, values first:

IC50 (Endothelial lipase (EL)) [nM] | IC50 (hepatic lipase (HL)) [nM] | SMILES
9 | 21 | CS(=O)(=O)C(c1nnc(CNS(N)(=O)=O)o1)c1nc2ccc(-c3cccc(C(=O)N4CC(F)(F)C4)c3)cc2s1 (stereo not shown) [Example 251, N-{[5-({6-[3-(3,3-difluoroazetidine-1-carbonyl)phenyl]-1,3-benzothiazol-2-yl} (methanesulfonyl)methyl)-1,3,4-oxadiazol-2-yl]methyl} aminosulfonamide]
< 10 | 143 | COCCS(=O)(=O)C(c1nnc(CNS(N)(=O)=O)o1)c1nc2ccc(-c3cnn(C)c3)cc2s1 (stereo not shown) [Example 116, N-((5-(((2-methoxyethyl)sulfonyl)(6-(1-methyl-1H-pyrazol-4-yl)-1,3-benzothiazol-2-yl)methyl)-1,3,4-oxadiazol-2-yl)methyl) sulfamide]
3 | 7 | CC(C)(C)CNC(=O)c1cccc(-c2ccc3nc(C(c4nnc(CNS(N)(=O)=O)o4)S(C)(=O)=O)sc3c2)c1 (stereo not shown) [Example 260, N-(2,2-dimethylpropyl)-3-{2-[methanesulfonyl({5-[(sulfamoylamino)methyl]-1,3,4-oxadiazol-2-yl})methyl]-1,3-benzothiazol-6-yl}benzamide]
< 10 | 44 | O=C(Cc1nnc(C(c2nc3ccc(-c4ccc(C(=O)N5CCOCC5)cc4)cc3s2)S(=O)(=O)Cc2ccccc2)o1)NC1CCCC1 (stereo not shown) [Example 180, 2-(5-((benzylsulfonyl)(6-(4-(4-morpholinylcarbonyl)phenyl)-1,3-benzothiazol-2-yl)methyl)-1,3,4-oxadiazol-2-yl)-N-cyclopentylacetamide]
1 | 25 | CN(C(=O)c1cccc(-c2ccc3nc(C(c4nnc(CC5(C)NC(=O)NC5=O)o4)S(C)(=O)=O)sc3c2)c1)C1CC1 (stereo not shown) [Example 221, N-cyclopropyl-3-{2-[methanesulfonyl({5-[(4-methyl-2,5-dioxoimidazolidin-4-yl)methyl]-1,3,4-oxadiazol-2-yl})methyl]-1,3-benzothiazol-6-yl}-N-methylbenzamide]
2 | 1100 | CC1(Cc2nnc(C(c3nc4ccc(-c5cccc(C(=O)N6CCC(O)CC6)c5)cc4s3)S(C)(=O)=O)o2)NC(=O)NC1=O (stereo not shown) [Example 212, 5-{[5-({6-[3-(4-hydroxypiperidine-1-carbonyl)phenyl]-1,3-benzothiazol-2-yl} (methanesulfonyl)methyl)-1,3,4-oxadiazol-2-yl]methyl}-5-methyl-imidazolidine-2,4-dione]
4 | 6 | COCc1ccc(-c2ccc3nc(C(c4nnc(CNS(N)(=O)=O)o4)S(=O)(=O)Cc4cc(Cl)cc(Cl)c4)sc3c2)cc1 (stereo not shown) [Example 235, N-({5-[(3,5-dichlorophenyl)methanesulfonyl({6-[4-(methoxymethyl)phenyl]-1,3-benzothiazol-2-yl})methyl]-1,3,4-oxadiazol-2-yl}methyl)aminosulfonamide]
